From ChEMBL document CHEMBL1201862, “PubChem BioAssay data set” (2004)
Calls of active or inactive are those of the source.

Tests used:
[1] = biological target: T1, Fatty acid synthase (Homo sapiens, UniProt P49327); experiment: inhibition of human FAS-TE enzyme activity – biochemical, endpoint fluorescence intensity, uHTS hits, dose response (AID 624327); assay type: functional;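 note: fluorescence from hydrolysis of an O-methyl fluorescein acyl ester substrate by the enzyme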
[2] = biological target: T1, Fatty acid synthase; experiment: inhibition of human FAS-TE enzyme activity – biochemical, kinetic fluorescence intensity, dose response (AID 624326); assay type: functional;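 note: rate of fluorescence rise from hydrolysis of a fluorogenic O-methyl fluorescein ester substrate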
[3] = NIH-3T3 fibroblast cytotoxicity, dose response, cytotoxicity control, cell-based, fluorescence, Alamar Blue, secondary assay (AID 2327); assay type: functional;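 note: NIH-3T3 mouse fibroblasts cultured with fluconazole at 8 µg/mL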
[4] = cells; assay type: functional, cell-based
[5] = fluconazole-exposed Candida albicans growth modulators – fluorescence, retest, confirmation (AID 2467); assay type: functional, cell-based
[6] = cells; assay type: functional, cell-based; remark: listed apart in the source
[7] = biological target: Heat shock protein HSP 90-alpha (Homo sapiens, UniProt P07900); assay type: functional, organism-based
[8] = Luminescence Cell-Based Dose Confirmation HTS to Identify Activators of 5'UTR Stem-Loop Driven Alpha-Synuclein mRNA Translation in H4 Neuroglioblastoma Cells. [Related pubchem assays: 1829 (Project Summary), 1814 (Primary HTS)]; assay type: functional
[9] = tested on: H4; experiment: Luminescence Cell-Based Dose Response HTS to Identify Activators of 5'UTR Stem-Loop Driven Prion Protein mRNA Translation in H4 Neuroglioblastoma Cells. [Related pubchem assays: 1829 (Project Summary), 1814 (Primary HTS)]; assay type: functional; conditions: Homo sapiens
[10] = Luminescence Cell-Based Dose Response HTS to Identify Activators of Luciferase Translation or Activity in H4 […] Cells. [Related pubchem assays: 1829 (Project Summary), 1814 (Primary HTS)]; assay type: functional
[11] = biological target: T2, High affinity choline transporter 1 (Homo sapiens, UniProt Q9GZV3); experiment: human choline transporter blockers, potency – cell-based, 5-point CRC, membrane potential dye, dose response (AID 504840); assay type: functional
T2 sequence (Q9GZV3 whole entry): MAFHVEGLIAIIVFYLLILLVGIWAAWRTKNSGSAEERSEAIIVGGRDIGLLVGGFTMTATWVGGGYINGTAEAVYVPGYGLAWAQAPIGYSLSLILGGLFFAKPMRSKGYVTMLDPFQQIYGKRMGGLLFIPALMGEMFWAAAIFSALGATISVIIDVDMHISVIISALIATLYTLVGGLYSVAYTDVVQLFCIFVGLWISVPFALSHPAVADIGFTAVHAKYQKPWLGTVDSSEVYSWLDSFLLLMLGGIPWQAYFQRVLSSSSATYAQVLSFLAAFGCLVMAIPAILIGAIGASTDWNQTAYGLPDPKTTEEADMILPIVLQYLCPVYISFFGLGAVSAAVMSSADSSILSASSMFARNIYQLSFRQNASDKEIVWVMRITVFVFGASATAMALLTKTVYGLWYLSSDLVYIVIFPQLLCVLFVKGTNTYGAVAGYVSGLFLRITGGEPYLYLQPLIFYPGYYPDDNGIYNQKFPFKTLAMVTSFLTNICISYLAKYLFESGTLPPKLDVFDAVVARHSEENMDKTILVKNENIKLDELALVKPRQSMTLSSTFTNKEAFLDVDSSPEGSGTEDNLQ

[12] = biological target: T3, Long-chain-fatty-acid--AMP ligase FadD28 (Mycobacterium tuberculosis, UniProt P9WQ59); experiment: Fluorescence polarization aasay to screen for inhibitors that compete for the binding of FadD28 to a bisubstrate Measured in Biochemical System Using Plate Reader - 2147-01_Inhibitor_Dose_CherryPick_Activity.; assay type: functional, Mycobacterium tuberculosis H37Rv
T3 sequence (P9WQ59 whole entry): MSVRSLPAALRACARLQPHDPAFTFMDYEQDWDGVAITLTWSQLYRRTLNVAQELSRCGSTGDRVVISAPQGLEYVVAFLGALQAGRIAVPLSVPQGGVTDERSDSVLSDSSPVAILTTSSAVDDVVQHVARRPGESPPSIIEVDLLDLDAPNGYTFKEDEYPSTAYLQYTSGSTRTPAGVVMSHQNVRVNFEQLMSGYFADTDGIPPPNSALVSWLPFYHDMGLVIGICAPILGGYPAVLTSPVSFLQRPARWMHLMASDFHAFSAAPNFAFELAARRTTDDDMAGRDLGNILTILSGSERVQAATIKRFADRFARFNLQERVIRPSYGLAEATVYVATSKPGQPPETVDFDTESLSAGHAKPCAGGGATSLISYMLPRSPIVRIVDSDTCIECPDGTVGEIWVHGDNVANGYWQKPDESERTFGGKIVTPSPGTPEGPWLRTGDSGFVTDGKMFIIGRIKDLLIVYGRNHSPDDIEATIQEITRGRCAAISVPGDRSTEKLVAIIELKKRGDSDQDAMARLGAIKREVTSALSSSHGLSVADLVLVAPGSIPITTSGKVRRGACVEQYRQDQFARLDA

[13] = viability of PTEN-deleted HCT116 cells – cell-based, HCT116 PTEN knockout, dose response (AID 1047); assay type: functional;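 note: HCT116 colon tumor cells with PTEN knocked out; cells exposed to compound for 60 hours before readout; potency for loss of cell viability measured by luminescence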
[14] = biological target: T4, Ubiquitin-conjugating enzyme E2 N (Homo sapiens, UniProt P61088); assay type: functional;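 note: Dose-response confirmation in a TR-FRET assay detecting UBC13-driven polyubiquitin chain formation, inhibition measured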
T4 sequence (P61088 whole entry): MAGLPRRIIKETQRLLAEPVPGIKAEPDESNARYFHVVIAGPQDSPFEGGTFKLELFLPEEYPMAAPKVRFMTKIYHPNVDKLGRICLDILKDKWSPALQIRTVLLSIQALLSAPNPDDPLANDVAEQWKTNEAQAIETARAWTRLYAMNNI

[15] = viability of HCT116 lacking mutant beta-catenin – cell-based, human colon tumor, dose response (AID 1045); assay type: functional;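 note: HCT116 colon tumor cells with beta catenin knocked out; cells exposed to compound for 60 hours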
[16] = biological target: T5, Heat shock factor protein 1 (Mus musculus, UniProt P38532); experiment: decrease of HSF1-responsive luciferase luminescence – cell-based, NIH3T3, dose retest, confirmation (AID 2382); assay type: functional;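 note: NIH3T3 fibroblasts with HSF1-driven luciferase reporter stressed by proteasome inhibitor MG132; luminescence from HSF1-driven luciferase expression after 8 hours of MG132 stress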
T5 sequence (P38532 whole entry): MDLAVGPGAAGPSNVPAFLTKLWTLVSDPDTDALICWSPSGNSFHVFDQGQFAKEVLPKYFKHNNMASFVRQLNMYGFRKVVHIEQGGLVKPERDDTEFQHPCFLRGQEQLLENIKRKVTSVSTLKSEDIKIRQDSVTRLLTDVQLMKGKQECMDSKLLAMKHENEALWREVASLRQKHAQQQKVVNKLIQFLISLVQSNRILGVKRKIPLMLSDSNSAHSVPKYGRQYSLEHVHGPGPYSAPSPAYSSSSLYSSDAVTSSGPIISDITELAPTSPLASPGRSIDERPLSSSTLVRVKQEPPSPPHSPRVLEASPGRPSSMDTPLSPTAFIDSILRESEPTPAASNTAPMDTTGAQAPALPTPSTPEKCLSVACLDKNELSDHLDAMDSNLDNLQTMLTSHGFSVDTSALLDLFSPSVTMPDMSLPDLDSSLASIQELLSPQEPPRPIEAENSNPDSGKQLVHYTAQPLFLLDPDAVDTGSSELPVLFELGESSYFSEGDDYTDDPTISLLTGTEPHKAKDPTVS

T1 sequence (P49327 whole entry): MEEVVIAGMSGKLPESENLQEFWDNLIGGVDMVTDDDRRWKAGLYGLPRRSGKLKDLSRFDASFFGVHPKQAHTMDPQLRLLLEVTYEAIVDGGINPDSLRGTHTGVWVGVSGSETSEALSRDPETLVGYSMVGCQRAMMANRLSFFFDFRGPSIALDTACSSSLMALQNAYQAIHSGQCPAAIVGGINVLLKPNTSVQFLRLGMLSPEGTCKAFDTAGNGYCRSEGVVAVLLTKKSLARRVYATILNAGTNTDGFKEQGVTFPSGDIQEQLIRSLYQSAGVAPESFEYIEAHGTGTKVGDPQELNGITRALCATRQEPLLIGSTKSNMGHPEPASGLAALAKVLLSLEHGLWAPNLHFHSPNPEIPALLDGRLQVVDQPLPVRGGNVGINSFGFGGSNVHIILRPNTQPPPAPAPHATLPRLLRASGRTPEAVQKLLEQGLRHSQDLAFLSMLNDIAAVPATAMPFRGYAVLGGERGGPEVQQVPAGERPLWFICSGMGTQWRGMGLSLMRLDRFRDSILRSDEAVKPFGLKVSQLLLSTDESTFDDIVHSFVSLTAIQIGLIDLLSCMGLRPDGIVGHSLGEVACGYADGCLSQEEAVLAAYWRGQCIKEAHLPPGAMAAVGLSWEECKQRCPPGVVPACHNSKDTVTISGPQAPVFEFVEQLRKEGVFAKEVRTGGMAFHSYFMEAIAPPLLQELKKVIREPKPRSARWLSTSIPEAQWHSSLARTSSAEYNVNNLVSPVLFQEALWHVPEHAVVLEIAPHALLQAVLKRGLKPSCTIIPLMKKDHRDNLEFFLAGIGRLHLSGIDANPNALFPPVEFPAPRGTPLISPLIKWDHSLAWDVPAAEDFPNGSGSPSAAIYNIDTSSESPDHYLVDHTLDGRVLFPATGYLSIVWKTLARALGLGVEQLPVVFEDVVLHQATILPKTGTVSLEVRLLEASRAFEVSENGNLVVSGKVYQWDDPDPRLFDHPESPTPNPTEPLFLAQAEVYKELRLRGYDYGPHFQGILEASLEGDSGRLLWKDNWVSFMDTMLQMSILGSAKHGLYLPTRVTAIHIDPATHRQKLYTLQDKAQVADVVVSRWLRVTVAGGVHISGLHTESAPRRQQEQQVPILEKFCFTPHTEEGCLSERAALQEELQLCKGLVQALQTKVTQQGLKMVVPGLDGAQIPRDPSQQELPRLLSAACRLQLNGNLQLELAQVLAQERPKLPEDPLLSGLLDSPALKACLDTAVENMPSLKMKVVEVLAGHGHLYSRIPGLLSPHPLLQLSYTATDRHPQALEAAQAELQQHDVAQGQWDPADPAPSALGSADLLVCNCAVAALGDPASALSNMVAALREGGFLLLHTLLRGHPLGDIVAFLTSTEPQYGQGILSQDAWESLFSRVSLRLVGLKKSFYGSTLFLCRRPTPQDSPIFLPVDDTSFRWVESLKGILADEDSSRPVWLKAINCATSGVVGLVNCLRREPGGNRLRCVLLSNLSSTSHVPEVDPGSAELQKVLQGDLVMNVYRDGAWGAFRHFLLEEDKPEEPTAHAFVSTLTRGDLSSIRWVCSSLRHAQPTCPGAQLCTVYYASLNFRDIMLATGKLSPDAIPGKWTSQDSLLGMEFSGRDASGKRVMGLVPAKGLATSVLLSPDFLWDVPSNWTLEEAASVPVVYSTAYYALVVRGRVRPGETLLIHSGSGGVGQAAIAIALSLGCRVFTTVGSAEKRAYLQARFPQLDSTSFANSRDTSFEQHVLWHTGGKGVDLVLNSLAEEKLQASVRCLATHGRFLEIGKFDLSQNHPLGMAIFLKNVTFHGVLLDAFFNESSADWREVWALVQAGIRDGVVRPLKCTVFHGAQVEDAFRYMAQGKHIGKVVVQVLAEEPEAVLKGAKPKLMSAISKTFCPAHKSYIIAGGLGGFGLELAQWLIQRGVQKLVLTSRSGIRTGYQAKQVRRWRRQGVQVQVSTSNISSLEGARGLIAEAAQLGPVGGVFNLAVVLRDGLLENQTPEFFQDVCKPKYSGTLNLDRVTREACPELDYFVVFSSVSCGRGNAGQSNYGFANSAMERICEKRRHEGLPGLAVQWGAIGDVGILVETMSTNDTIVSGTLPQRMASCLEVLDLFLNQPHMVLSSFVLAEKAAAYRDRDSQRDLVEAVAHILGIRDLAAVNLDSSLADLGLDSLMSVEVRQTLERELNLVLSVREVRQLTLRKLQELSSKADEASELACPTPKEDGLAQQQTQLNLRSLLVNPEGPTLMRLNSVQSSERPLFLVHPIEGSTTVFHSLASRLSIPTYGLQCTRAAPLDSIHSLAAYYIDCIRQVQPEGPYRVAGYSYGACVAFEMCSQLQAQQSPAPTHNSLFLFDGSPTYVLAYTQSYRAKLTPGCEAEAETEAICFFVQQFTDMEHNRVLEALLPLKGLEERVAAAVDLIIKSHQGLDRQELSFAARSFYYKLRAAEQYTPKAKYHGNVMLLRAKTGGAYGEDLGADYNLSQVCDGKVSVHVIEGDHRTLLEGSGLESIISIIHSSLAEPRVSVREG

Question: Which IC50 [1] does the source give for Cc1nn(Cc2ccc([N+](=O)[O-])cc2)c(=O)n1-c1cccc(Cl)c1 here?
Answer: 5.54 µM (active)

Question: And the IC50 [2]?
Answer: 8.36 µM (active)

Question: With Oc1ccc(CN2CCC(Cc3ccccc3)CC2)c2cccnc12 as the compound, how does the EC50 [3] read?
Answer: 22.3 µM (active)

Question: And the EC50 [4]?
Answer: 6.9 µM (active)

Question: What about the EC50 [5] of the same compound?
Answer: 1.99 µM (active)

Question: What about the EC50 [6] of the same compound?
Answer: > 350 µM (not active)

Question: For CC1=C(C(=O)OCc2ccccc2)C(/C=C/c2ccccc2)NC(S)=N1 (stereo not drawn), which AC50 [7] is on record?
Answer: 4.08 µM (active)

Question: Which results are given for Cc1ccc2[nH]c(N3CCN(C)CC3)nc2c1?
Answer: EC50 [8]: 3.62 µM (active); EC50 [4]: > 350 µM (not active); EC50 [9]: 20 µM (active); EC50 [10]: 18.7 µM (active); EC50 [6]: > 350 µM (not active)

Question: Which IC50 [11] does the source give for CCS(=O)(=O)C1=NSC2=NC(=O)/C(=C\c3ccc(OS(=O)(=O)c4ccccc4)c(OC)c3)C(=N)N21 here?
Answer: 13.5 µM (active)

Question: Which AC50 [12] does the source give for O=C(O)c1ccc(-c2nc(-c3ccccc3)c(-c3ccccc3)[nH]2)cc1 here?
Answer: 92.3 µM (active)

Question: For CC(=O)c1cc(C#N)c(SCCC(C)C)nc1C, which IC50 [1] is on record?
Answer: 9.77 µM (active)

Question: And the IC50 [2]?
Answer: 9.54 µM (active)

Question: Which EC50 [13] does the source give for Cc1cc(C2N=C(N)Nc3nc4ccccc4n32)c(C)n1-c1ccccc1Cl (stereo not drawn) here?
Answer: 30.1 µM (active)

Question: And the IC50 [14]?
Answer: > 20 µM (inactive)

Question: And the EC50 [15]?
Answer: 23.4 µM (active)

Question: With Cn1c(SCC(=O)Nc2ncc(C(F)(F)F)cc2Cl)nnc1-c1ccc(Cl)cc1 as the compound, how does the IC50 [1] read?
Answer: 0.551 µM (active)

Question: What about the EC50 [16] of the same compound?
Answer: > 195 µM (not active)

Question: What about the IC50 [2] of the same compound?
Answer: 0.572 µM (active)

Question: Which IC50 [1] does the source give for COc1ccc([N+](=O)[O-])cc1NC(=O)N(C)Cc1ccco1 here?
Answer: 17.7 µM (active)

Question: What about the IC50 [2] of the same compound?
Answer: 21.1 µM (inactive)

Question: Which AC50 [7] does the source give for COc1ccc(C2=CC3=C(Br)C(=O)C(C)(O)C(=O)C3=CO2)cc1 (stereo not drawn) here?
Answer: 2.62 µM (active)

Question: With Cc1cccc(NC(=O)COC(=O)c2cccc(S(=O)(=O)N3CCCCCC3)c2)c1 as the compound, how does the AC50 [12] read?
Answer: 7.43 µM (active)

Question: With CCN(CCO)C1CC(=O)N(c2ccccc2C)C1=O (stereo not drawn) as the compound, how does the AC50 [7] read?
Answer: 2.14 µM (active)

Question: Which IC50 [11] does the source give for COC(=O)CSc1nnc(-c2ccc(NS(=O)(=O)c3ccccc3)cc2)o1 here?
Answer: 12 µM (active)
